In US20060116390A1, “Hepatitis c virus inhibitors” (priority 2003, published 2006):
Counter-ions that a name gives are not always drawn. Like-named read-outs stand apart in the source and are kept apart here.

System: HCV proteins in Rep5.1 cells (replicon cell line)
Experiment: Inhibitory activity of HCV: cell-based ELISA in replicon cell line Rep5.1 (decrease of HCV proteins)
Design: species or system hepatitis C virus
Conditions: Hepatitis C virus, 72 h
Method in brief: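 HCV protein loss was quantified by ELISA on methanol/acetone-fixed cells 72 h after drug addition, probing with selected HCV-positive human plasma, and IC50 was defined as 50% reduction relative to untreated wells. The cells were Rep5.1 replicon cells cultured in DMEM-10 with 500 μg/ml G418, plated at 5000 per well and dosed with serial dilutions after 4 h attachment.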

[1] = Rep5.1 cells, 72 hours with drug, concentration at which 50% of HCV proteins was decreased, Table 2, read-out: IC50
[2] = Rep5.1 cells, 72 hours with drug, decrease of HCV proteins measured by HCV antibody, Table 1, read-out: Level (IC50 values classified)

CC1=C(C(=O)OCc2cnc(-c3cccs3)s2)CNC(=S)N1 [Compound 210, 6-methyl-2-thioxo-1,2,3,4-tetrahydro-pyrimidine-5-carboxylic acid 2-thiophen-2-yl-thiazol-5-ylmethyl ester]
IC50 [1]: 3000 nM
IC50 [2]: 1000 to 10000 nM

CC1=C(C(=O)OCc2ccccc2C(F)(F)F)CNC(=S)N1 [Compound 100, 6-methyl-2-thioxo-1,2,3,4-tetrahydro-pyrimidine-5-carboxylic acid 2-trifluoromethyl-benzyl ester]
IC50 [1]: < 400 nM
IC50 [2]: < 1000 nM

COc1cc(COC(=O)C2=C(C)NC(=S)NC2)ccc1OCc1ccccc1 [Compound 58, 6-methyl-2-thioxo-1,2,3,4-tetrahydro-pyrimidine-5-carboxylic acid 4-benzyloxy-3-methoxy-benzyl ester]
IC50 [1]: < 500 nM
IC50 [2]: < 1000 nM

CCc1ccc(CCOC(=O)C2=C(C)NC(=S)NC2CO)cc1F (centres unmarked) [72″, 4-hydroxymethyl-6-methyl-2-thioxo-1,2,3,4-tetrahydro-pyrimidine-5-carboxylic acid 2-(4-ethyl-3-fluoro-phenyl)-ethyl ester]
IC50 [1]: 400 nM
IC50 [2]: < 1000 nM

CC(=O)OCC1NC(=S)NC(C)=C1C(=O)OCCCc1ccsc1 (centres unmarked) [22″, 4-acetoxymethyl-6-methyl-2-thioxo-1,2,3,4-tetrahydro-pyrimidine-5-carboxylic acid 3-thiophen-3-yl-propyl ester]
IC50 [1]: 43000 nM
IC50 [2]: > 20000 nM

CCOc1ccc(CCOC(=O)C2=C(C)NC(=S)NC2CO)cc1 (centres unmarked) [60″, 4-hydroxymethyl-6-methyl-2-thioxo-1,2,3,4-tetrahydro-pyrimidine-5-carboxylic acid 2-(4-ethoxy-phenyl)-ethyl ester]
IC50 [1]: 2500 nM
IC50 [2]: 1000 to 10000 nM

COCC1NC(=S)NC(C)=C1C(=O)OCCc1ccsc1 (centres unmarked) [2″, 4-methoxymethyl-6-methyl-2-thioxo-1,2,3,4-tetrahydro-pyrimidine-5-carboxylic acid 2-thiophen-3-yl-ethyl ester]
IC50 [1]: 35000 nM
IC50 [2]: > 20000 nM

CC1=C(C(=O)OCCc2csc([N+](=O)[O-])c2)C(CF)NC(=S)N1 (centres unmarked) [28′, 4-fluoromethyl-6-methyl-2-thioxo-1,2,3,4-tetrahydro-pyrimidine-5-carboxylic acid 2-(5-nitro-thiophen-3-yl)-ethyl ester]
IC50 [1]: 72000 nM
IC50 [2]: > 20000 nM

CC1=C(C(=O)OCC2CC2)CNC(=S)N1 [Compound 46, 6-methyl-2-thioxo-1,2,3,4-tetrahydro-pyrimidine-5-carboxylic acid cyclopropylmethyl ester]
IC50 [1]: 30000 nM
IC50 [2]: 10000 to 20000 nM

CC(=O)SCCOC(=O)OCC1NC(=S)NC(C)=C1C(=O)OCCc1cccc([N+](=O)[O-])c1 (centres unmarked) [79″, 4-(2-acetylsulfanyl-ethoxycarbonyloxymethyl)-6-methyl-2-thioxo-1,2,3,4-tetrahydro-pyrimidine-5-carboxylic acid 2-(3-nitro-phenyl)-ethyl ester]
IC50 [1]: 6200 nM
IC50 [2]: 1000 to 10000 nM

CC1=C(C(=O)OCc2cccc(OCc3ccccc3)c2)CNC(=S)N1 [Compound 50, 6-methyl-2-thioxo-1,2,3,4-tetrahydro-pyrimidine-5-carboxylic acid 3-benzyloxy-benzyl ester]
IC50 [1]: < 500 nM
IC50 [2]: < 1000 nM

CC1=C(C(=O)OCCc2ccc(Cl)s2)C(CO)NC(=S)N1 (centres unmarked) [1″, 4-hydroxymethyl-6-methyl-2-thioxo-1,2,3,4-tetrahydro-pyrimidine-5-carboxylic acid 2-(5-chloro-thiophen-2-yl)-ethyl ester]
IC50 [1]: 1600 nM
IC50 [2]: 1000 to 10000 nM

COc1ccc(Cl)cc1COC(=O)C1=C(C)NC(=S)NC1 [Compound 132, 6-methyl-2-thioxo-1,2,3,4-tetrahydro-pyrimidine-5-carboxylic acid 5-chloro-2-methoxy-benzyl ester]
IC50 [1]: 400 nM
IC50 [2]: < 1000 nM

CC1=C(C(=O)OCc2cc(C)cc(C)c2)C(CF)NC(=S)N1 (centres unmarked) [35′, 4-fluoromethyl-6-methyl-2-thioxo-1,2,3,4-tetrahydro-pyrimidine-5-carboxylic acid 3,5-dimethyl-benzyl ester]
IC50 [1]: 800 nM
IC50 [2]: < 1000 nM

CC1=C(C(=O)OCc2ccncc2)CNC(=S)N1 [Compound 155, 6-methyl-2-thioxo-1,2,3,4-tetrahydro-pyrimidine-5-carboxylic acid pyridin-4-ylmethyl ester]
IC50 [1]: > 100000 nM
IC50 [2]: > 20000 nM

CCCC1=C(C(=O)OCc2ccccc2)CNC(=S)N1 [Compound 25, 6-propyl-2-thioxo-1,2,3,4-tetrahydro-pyrimidine-5-carboxylic acid benzyl ester]
IC50 [1]: 2000 nM
IC50 [2]: 1000 to 10000 nM

CC1=C(C(=O)OCc2c(C)cc(C)cc2C)CNC(=S)N1 [Compound 142, 6-methyl-2-thioxo-1,2,3,4-tetrahydro-pyrimidine-5-carboxylic acid 2,4,6-trimethyl-benzyl ester]
IC50 [1]: 6000 nM
IC50 [2]: 1000 to 10000 nM

CC1=C(C(=O)OCc2ccc(F)cc2Cl)C(CO)NC(=S)N1 (centres unmarked) [48″, 4-hydroxymethyl-6-methyl-2-thioxo-1,2,3,4-tetrahydro-pyrimidine-5-carboxylic acid 2-chloro-4-fluoro-benzyl ester]
IC50 [1]: 43000 nM
IC50 [2]: > 20000 nM

COc1ccccc1CCOC(=O)C1=C(C)NC(=S)NC1CO (centres unmarked) [9″, 4-hydroxymethyl-6-methyl-2-thioxo-1,2,3,4-tetrahydro-pyrimidine-5-carboxylic acid 2-(2-methoxy-phenyl)-ethyl ester]
IC50 [1]: 20000 nM
IC50 [2]: 10000 to 20000 nM

CC1=C(C(=O)OCCc2cccc([N+](=O)[O-])c2)C(COC(=O)c2ccccc2)NC(=S)N1 (centres unmarked) [89″, 4-benzoyloxymethyl-6-methyl-2-thioxo-1,2,3,4-tetrahydro-pyrimidine-5-carboxylic acid 2-(3-nitro-phenyl)-ethyl ester]
IC50 [1]: 6800 nM
IC50 [2]: 1000 to 10000 nM

CC1=C(C(=O)OCc2scc(C)c2Cl)CNC(=S)N1 [Compound 207, 6-methyl-2-thioxo-1,2,3,4-tetrahydro-pyrimidine-5-carboxylic acid 3-chloro-4-methyl-thiophen-2-ylmethyl ester]
IC50 [1]: 300 nM
IC50 [2]: < 1000 nM

O=C(OCc1ccccc1)C1=C(C(F)(F)F)NC(=S)NC1 [Compound 146, 2-thioxo-6-trifluoromethyl-1,2,3,4-tetrahydro-pyrimidine-5-carboxylic acid benzyl ester]
IC50 [1]: > 100000 nM
IC50 [2]: > 20000 nM

CC1=C(C(=O)OCc2sc3sc(C)nc3c2C)CNC(=S)N1 [Compound 216, 6-methyl-2-thioxo-1,2,3,4-tetrahydro-pyrimidine-5-carboxylic acid 2,6-dimethyl-thieno[3,2-d]thiazol-5-ylmethyl ester]
IC50 [1]: 5000 nM
IC50 [2]: 1000 to 10000 nM

CC1=C(C(=O)OCCCc2cccs2)CNC(=S)N1 [9′, 6-methyl-2-thioxo-1,2,3,4-tetrahydro-pyrimidine-5-carboxylic acid 3-thiophen-2-yl-propyl ester]
IC50 [1]: < 400 nM
IC50 [2]: < 1000 nM

CC1=C(C(=O)OCc2ccc(C(C)(C)C)cc2)CNC(=S)N1 [Compound 45, 6-methyl-2-thioxo-1,2,3,4-tetrahydro-pyrimidine-5-carboxylic acid 4-t-butyl-benzyl ester]
IC50 [1]: < 400 nM
IC50 [2]: < 1000 nM

COc1ccc(CCOC(=O)C2=C(C)NC(=S)NC2CO)cc1C (centres unmarked) [69″, 4-hydroxymethyl-6-methyl-2-thioxo-1,2,3,4-tetrahydro-pyrimidine-5-carboxylic acid 2-(4-methoxy-3-methyl-phenyl)-ethyl ester]
IC50 [1]: 800 nM
IC50 [2]: < 1000 nM

CC1=C(C(=O)OCCCc2ccsc2)C(C(C)O)NC(=S)N1 (centres unmarked) [15″, 4-(1-hydroxy-ethyl)-6-methyl-2-thioxo-1,2,3,4-tetrahydro-pyrimidine-5-carboxylic acid 3-thiophen-3-yl-propyl ester]
IC50 [1]: 55000 nM
IC50 [2]: > 20000 nM

CC1=C(C(=O)OCCc2ccc(C)cc2)CNC(=S)N1 [Compound 173, 6-methyl-2-thioxo-1,2,3,4-tetrahydro-pyrimidine-5-carboxylic acid 2-p-tolyl-ethyl ester]
IC50 [1]: < 400 nM

CC1=C(C(=O)OCc2ccccc2C(F)(F)F)C(CF)NC(=S)N1 (centres unmarked) [37′, 4-fluoromethyl-6-methyl-2-thioxo-1,2,3,4-tetrahydro-pyrimidine-5-carboxylic acid 2-trifluoromethyl-benzyl ester]
IC50 [1]: 600 nM
IC50 [2]: < 1000 nM

CCOC(=O)CCCC1=C(C(=O)OCc2ccccc2)CNC(=S)N1 [Compound 169, 6-(3-ethoxycarbonyl-propyl)-2-thioxo-1,2,3,4-tetrahydro-pyrimidine-5-carboxylic acid benzyl ester]
IC50 [1]: 9000 nM
IC50 [2]: 1000 to 10000 nM

CC1=C(C(=O)OCCc2cccc(Cl)c2)C(COC(=O)NCCN(C)C)NC(=S)N1 (centres unmarked) [86″, 4-(2-dimethylamino-ethylcarbamoyloxymethyl)-6-methyl-2-thioxo-1,2,3,4-tetrahydro-pyrimidine-5-carboxylic acid 2-(3-chloro-phenyl)-ethyl ester trifluoroacetate]
IC50: 700 nM
IC50 (read-out: Level (IC50 values classified)): < 1000 nM

CC1=C(C(=O)OCCc2ccc(N(C)C)cc2)CNC(=S)N1 [Compound 95, 6-methyl-2-thioxo-1,2,3,4-tetrahydro-pyrimidine-5-carboxylic acid 2-(4-dimethylamino-phenyl)-ethyl ester]
IC50 [1]: 700 nM
IC50 [2]: < 1000 nM

COc1ccc(Br)cc1COC(=O)C1=C(C)NC(=S)NC1 [Compound 185, 6-methyl-2-thioxo-1,2,3,4-tetrahydro-pyrimidine-5-carboxylic acid 5-bromo-2-methoxy-benzyl ester]
IC50 [1]: 400 nM
IC50 [2]: < 1000 nM
